A value given as a limit tells only on which side of the number the result lay.

The source of these data is US20250059179A1, “Heterocyclic Compounds and Methods of Use” (AMGEN INC., priority 2021, published 2025).

Assay [1] addresses His-tagged KRAS G12D protein (Homo sapiens, UniProt P01116, G12D). Description: KRAS G12D TR-FRET Assay.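 Note: europium anti-His antibody paired with streptavidin-d2 as FRET partners, initial 30 min incubation, then peptide 1 h and detection reagents 1 h, all at room temperature.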 Format: binding. The note with it: biotinylated KRPep-2d substrate, 10 μM GDP.
Assay [2] has as its target GDP-bound KRAS protein (aa 1-169), containing both G12D and C118A amino acid substitutions (Homo sapiens, UniProt P01116, C118A/G12D). Description: KRAS G12D Coupled Nucleotide Exchange Assay.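 Note: IC50 obtained by fitting the AlphaScreen signal with a four-parameter logistic curve.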 Format: biochemical. The note with it: 2 h compound pre-incubation; SOS-mediated nucleotide exchange, cRAF AlphaScreen readout. (In Alpha technology, singlet oxygen from a donor bead excites a nearby acceptor bead.)

Assay [3] deals with Phosphorylation of ERK1/2 in A-427 cells. The assay is described as follows: Phospho-ERK1/2 MSD Assay. The class given is cell-based. The conditions noted are these: Homo sapiens, A-427, 2 h, 2 h compound treatment, read-out: pERK (A427 cells) IC50. Here is the method: A-427 (ATCC® HTB-53™) cells were cultured in RPMI 1640 Medium (ThermoFisher Scientific 11875093) containing 10% fetal bovine serum (ThermoFisher Scientific 16000044) and 1× penicillin-streptomycin-glutamine (ThermoFisher Scientific 10378016). Sixteen hours prior to compound treatment, A-427 cells were seeded in 96-well cell culture plates at a density of 25,000 cells/well and incubated at 37° C., 5% CO2. A compound dose-response titration was diluted in growth media, added to appropriate wells of a cell culture plate, and then incubated at 37° C., 5% CO2 for 2 h. Following compound treatment, cells were washed with ice-cold Dulbecco's phosphate-buffered saline, no Ca^2+ or Mg^2+ (ThermoFisher Scientific 14190144), and then lysed in RIPA buffer (50 mM Tris-HCl pH 7.5, 1% Igepal, 0.5% sodium deoxycholate, 150 mM NaCl, and 0.5% sodium dodecyl sulfate) containing protease inhibitors (Roche 4693132001) and phosphatase inhibitors (Roche 4906837001). Phosphorylation of ERK1/2 in compound-treated lysates was assayed using Phospho-ERK1/2 Whole Cell Lysate kits (Meso Scale Discovery K151DWD) according to the manufacturer's protocol. Assay plates were read on a Meso Scale Discovery Sector Imager 6000, and data were analyzed using a 4-parameter logistic model to calculate IC50 values.

His-tagged KRAS G12D protein, sequence (P01116 1-188 isoform P01116-2 G12D): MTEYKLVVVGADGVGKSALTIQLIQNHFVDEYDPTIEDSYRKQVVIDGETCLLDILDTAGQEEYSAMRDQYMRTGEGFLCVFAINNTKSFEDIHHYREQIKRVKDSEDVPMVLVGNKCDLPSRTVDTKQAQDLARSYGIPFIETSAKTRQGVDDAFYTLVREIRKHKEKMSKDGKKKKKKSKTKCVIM
GDP-bound KRAS protein (aa 1-169), containing both G12D and C118A amino acid substitutions, sequence (P01116 1-169 isoform P01116-2 G12D/C118A): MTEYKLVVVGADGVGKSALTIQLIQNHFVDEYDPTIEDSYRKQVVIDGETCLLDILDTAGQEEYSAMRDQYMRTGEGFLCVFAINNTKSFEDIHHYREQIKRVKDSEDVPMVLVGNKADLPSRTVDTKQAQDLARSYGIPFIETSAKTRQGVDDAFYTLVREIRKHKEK

Take `CCc1cc2c(N3C[C@H]4CC[C@@H](C3)N4)nc(OC[C@@]34CCCN3C[C@H](F)C4)nc2c(F)c1-c1ccc(F)c2sc(N)nc12` [Example 153, 4-(4-((1R,5S)-3,8-diazabicyclo[3.2.1]octan-3-yl)-6-ethyl-8-fluoro-2-(((2R,7aS)-2-fluorotetrahydro-1H-pyrrolizin-7a(5H)-yl)methoxy)quinazolin-7-yl)-7-fluorobenzo[d]thiazol-2-amine]: the IC50 – broadly, the point on the concentration scale where inhibition reaches its midpoint – in assay [1] turned out to be 0.004 µM; in assay [3] it was 0.011 µM. In assay [2], the “Avg 2 h Coupled Exchange IC50” value stood at 0.006 µM.
Regarding `Nc1nc2c(-c3c(Cl)cc4c(N5C[C@H]6CC[C@@H](C5)N6)nc(OC[C@]56CCCN5C[C@H](F)C6)nc4c3F)ccc(F)c2s1` [Example 136, 4-(4-((1R,5S)-3,8-diazabicyclo[3.2.1]octan-3-yl)-6-chloro-8-fluoro-2-(((2R,7aR)-2-fluorotetrahydro-1H-pyrrolizin-7a(5H)-yl)methoxy)quinazolin-7-yl)-7-fluorobenzo[d]thiazol-2-amine], the values for the IC50 in assay [1] and in assay [3] were 0.001 µM and 0.033 µM, respectively. Moreover, the “Avg 2 h Coupled Exchange IC50” value in assay [2] worked out at 0.001 µM.
As for `CN1CCC[C@H]1CCOc1nc(N2CCNCC2)c2cc(Cl)c(-c3cccc4sc(N)nc34)c(F)c2n1` [Example 61, 4-(6-chloro-8-fluoro-2-(2-((S)-1-methyl-pyrrolidin-2-yl)ethoxy)-4-(piperazin-1-yl)quinazolin-7-yl)benzo[d] thiazol-2-amine], the IC50 was 0.476 µM in assay [1] and greater than 25 µM in assay [3]. Moreover, in assay [2], the “Avg 2 h Coupled Exchange IC50” value stood at 0.361 µM.
In the case of `CN1CCC[C@H]1COc1nc(N2CC3CC(C2)N3)c2cc(Cl)c(-c3cccc4sc(N)nc34)c(F)c2n1` [Example 5, 4-(4-(3,6-diazabicyclo[3.1.1]heptan-3-yl)-6-chloro-8-fluoro-2-(((S)-1-methylpyrrolidin-2-yl)methoxy)quinazolin-7-yl)benzo[d]thiazol-2-amine], the figures for the IC50 in assay [1] and in assay [3] were 0.01 µM and 2.63 µM, respectively. Also, in assay [2], the “Avg 2 h Coupled Exchange IC50” value was determined as 0.005 µM.
Turning to `C=Cc1cc2c(N3CCNCC3)nc(OC[C@@H]3CCCN3C)nc2c(F)c1-c1cccc2sc(N)nc12` [Example 149, 4-(8-fluoro-2-(((S)-1-methylpyrrolidin-2-yl)methoxy)-4-(piperazin-1-yl)-6-vinylquinazolin-7-yl)benzo[d]thiazol-2-amine], the IC50 in assay [1] worked out at 0.121 µM; in assay [3] it was 6.93 µM. In addition, in assay [2], the “Avg 2 h Coupled Exchange IC50” value stood at 0.025 µM.
In the same order, the values of `Nc1nc2c(-c3c(Cl)cc4c(N5C[C@H]6CC[C@@H](C5)N6)nc(OC[C@@]56CCCN5C[C@H](F)C6)nc4c3F)ccc(F)c2s1` [Example 137, 4-(4-((1R,5S)-3,8-diazabicyclo[3.2.1]octan-3-yl)-6-chloro-8-fluoro-2-(((2R,7aS)-2-fluorotetrahydro-1H-pyrrolizin-7a(5H)-yl)methoxy)quinazolin-7-yl)-7-fluorobenzo[d]thiazol-2-amine] are 0.003 µM, 0.008 µM and 0.002 µM.
In the case of `Nc1nc2c(-c3c(Cl)cc4c(N5CCNCC5)nc(OC[C@]56CCCN5C[C@H](F)C6)nc4c3F)cccc2s1` [Example 46, 4-(6-chloro-8-fluoro-2-(((2R,7aR)-2-fluorotetra-hydro-1H-pyrrolizin-7a(5H)-yl)methoxy)-4-(piperazin-1-yl)quinazolin-7-yl)benzo[d] thiazol-2-amine], in assay [3], the IC50 amounted to 3.95 µM.
`Nc1nc2c(-c3c(Cl)cc4c(N5CCNCC5)nc(OCC56CCCN5CCC6)nc4c3F)cccc2s1` [Example 44, 4-(6-chloro-8-fluoro-4-(piperazin-1-yl)-2-((tetrahydro-1H-pyrrolizin-7a(5H)-yl)methoxy)quinazolin-7-yl)benzo[d] thiazol-2-amine]: it took 0.03 µM to reach half-maximal inhibition in assay [1] (IC50). For the same molecule, the “Avg 2 h Coupled Exchange IC50” value in assay [2] came to 0.014 µM.
The like results for `CN1CCC[C@H]1COc1nc(N2C[C@H]3CC[C@@H]2CN3)c2cc(Cl)c(-c3cccc4sc(N)nc34)c(F)c2n1` [Example 27, 4-(4-((1R,4R)-2,5-diazabicyclo[2.2.2]octan-2-yl)-6-chloro-8-fluoro-2-(((S)-1-methylpyrrolidin-2-yl)methoxy)quinazolin-7-yl)benzo[d]thiazol-2-amine] were, in that order, 1.21 µM and 0.429 µM.
The like results for `CC1CNCC=C1c1nc(OC[C@@H]2CCCN2C)nc2c(F)c(-c3cccc4sc(N)nc34)c(Cl)cc12` (single isomer, unassigned) [Example 145] were, in that order, 2.97 µM and 0.803 µM.
In the same order, the values of `Cc1c(-c2ccc(F)c3sc(N)nc23)ccc2c(N3C[C@H]4CC[C@@H](C3)N4)nc(OC[C@@]34CCCN3C[C@H](F)C4)nc12` [Example 139, 4-(4-((1R,5S)-3,8-diazabicyclo[3.2.1]octan-3-yl)-2-(((2R,7aS)-2-fluorotetrahydro-1H-pyrrolizin-7a(5H)-yl)methoxy)-8-methylquinazolin-7-yl)-7-fluorobenzo[d]thiazol-2-amine] are 0.011 µM and 0.003 µM.
In assay [1], `CN1CCC[C@H]1COc1nc(N2CCNC(=O)CC2)c2cc(Cl)c(-c3cccc4sc(N)nc34)c(F)c2n1` [Example 24, 1-(7-(2-aminobenzo[d]thiazol-4-yl)-6-chloro-8-fluoro-2-(((S)-1-methylpyrrolidin-2-yl)methoxy)quinazolin-4-yl)-1,4-diazepan-5-one] yielded an IC50 of 0.158 µM. The “Avg 2 h Coupled Exchange IC50” value in assay [2] is 0.172 µM.
The like results for `CN1CCC[C@H]1COc1nc(N2CCNCC2)c2cc(F)c(-c3cccc4sc(N)nc34)c(F)c2n1` [Example 134, 4-(6,8-difluoro-2-(((S)-1-methylpyrrolidin-2-yl)methoxy)-4-(piperazin-1-yl)quinazolin-7-yl)benzo[d]thiazol-2-amine] were, in that order, 2.39 µM and 0.391 µM.
In the same order, the values of `CN1CCC[C@H]1COc1nc(N2CCNCC2)c2cc(C#N)c(-c3cccc4sc(N)nc34)c(F)c2n1` [Example 156, 7-(2-Aminobenzo[d]thiazol-4-yl)-8-fluoro-2-(((S)-1-methylpyrrolidin-2-yl)methoxy)-4-(piperazin-1-yl)quinazoline-6-carbonitrile] are 0.365 µM and 0.189 µM.
In the same order, the values of `CN1CCC[C@H]1CNc1nc(N2CCNCC2)c2cc(Cl)c(-c3cccc4sc(N)nc34)c(F)c2n1` [Example 70, 4-(6-chloro-8-fluoro-2-((((S)-1-methyl-pyrrolidin-2-yl)methyl)amino)-4-(piperazin-1-yl)quinazolin-7-yl)benzo[d] thiazol-2-amine] are 10.7 µM and 2.14 µM.
On to `CN1CCC[C@H]1COc1nc2c(F)c(-c3ccc(F)c4sc(N)nc34)c(Cl)cc2c(N2CCNCC2)c1C#N` [Example 157, 7-(2-Amino-7-fluorobenzo[d]thiazol-4-yl)-6-chloro-8-fluoro-2-(((S)-1-methylpyrrolidin-2-yl)methoxy)-4-(piperazin-1-yl)quinoline-3-carbonitrile], for which the IC50 in assay [1] was found to be 0.073 µM. For the same molecule, the “Avg 2 h Coupled Exchange IC50” value in assay [2] was 0.023 µM.
The like results for `CN(C)C1CN(c2nc(N3CCNCC3)c3cc(Cl)c(-c4cccc5sc(N)nc45)c(F)c3n2)C1` [Example 67, 4-(6-chloro-2-(3-(dimethylamino)azetidin-1-yl)-8-fluoro-4-(piperazin-1-yl)quinazolin-7-yl)benzo[d] thiazol-2-amine] were, in that order, 1.62 µM and 0.67 µM.
